# PubChem BioAssay (NCI)
#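 Step 1: Grow cells in 96-well plates. Step 2: Expose to compound for 48 hours at 5 concentrations. Step 3: Interpolate endpoints linearly; if unreached, use highest concentration. GI50 = concentration required for 50% inhibition of growth. At the TGI there is no net growth.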
# Tests used:
# Experiment in all cases: DTP human tumour cell line panel, 48 h
# MALME-3M melanoma = tested on: MALME-3M melanoma
# SK-MEL-28 melanoma = tested on: SK-MEL-28 melanoma
# M14 melanoma = tested on: M14 melanoma
# UACC-62 melanoma = tested on: UACC-62 melanoma
# KM12 colon = tested on: KM12 colon
# NCI-H522 lung = tested on: NCI-H522 lung
# OVCAR-4 ovarian = tested on: OVCAR-4 ovarian
# NCI-H460 lung = tested on: NCI-H460 lung
# SNB-75 CNS = tested on: SNB-75 CNS
# HL-60(TB) leukemia = tested on: HL-60(TB) leukemia
SMILES,TGI (MALME-3M melanoma) [µM],TGI (SK-MEL-28 melanoma) [µM],TGI (M14 melanoma) [µM],TGI (UACC-62 melanoma) [µM],TGI (KM12 colon) [µM],TGI (NCI-H522 lung) [µM],TGI (OVCAR-4 ovarian) [µM],TGI (NCI-H460 lung) [µM],TGI (SNB-75 CNS) [µM],TGI (HL-60(TB) leukemia) [µM],GI50 (MALME-3M melanoma) [µM],GI50 (SK-MEL-28 melanoma) [µM],GI50 (HL-60(TB) leukemia) [µM],GI50 (M14 melanoma) [µM],GI50 (UACC-62 melanoma) [µM],GI50 (KM12 colon) [µM],GI50 (NCI-H522 lung) [µM],GI50 (OVCAR-4 ovarian) [µM],GI50 (NCI-H460 lung) [µM],GI50 (SNB-75 CNS) [µM]
COc1ccc(OC)c(NC(=O)C2=C(C)NC(C)=C(C(=O)Nc3cc(OC)ccc3OC)C2c2ccccc2)c1,> 100,> 100,> 100,> 100,> 100,> 100,> 100,> 100,91,,,,,,,,,,,
Cc1ccc(C(=O)c2nnc(C(=O)c3ccc(C)cc3)nn2)cc1,> 100,> 100,56.3,> 100,> 100,> 100,> 100,33.8,> 100,48.2,,,,,,,,,,
COc1ccc2c(c1)cn1c3ccc(O)cc3nc(N)c21,23.2,5.31,4.98,20,5.7,2.22,15.7,14.7,2.81,31.3,0.0714,0.126,0.765,0.0798,0.09,0.615,0.111,1.57,0.131,0.112
Cc1ccc(NC(=O)C(=O)C(C#N)c2ccccc2C)cc1C (configuration not stated),> 100,> 100,> 100,> 100,> 100,> 100,> 100,> 79.9,> 100,> 85.8,,,,,,,,,,
NC1C[C@H](n2cc(/C=C/Br)c(=O)[nH]c2=O)C[C@@H]1CO (some centres not stated),,> 100,> 100,> 100,,> 100,> 100,> 100,> 100,> 100,,,,,,,,,,
C[C@@H]1C[C@H]2CC[C@H](O2)[C@H](C)C(=O)O[C@@H](C)C[C@@H]2CC[C@@H](O2)[C@@H](C)C(=O)O[C@H](C)C[C@H]2CC[C@H](O2)[C@H](C)C(=O)O[C@@H](C)C[C@@H]2CC[C@@H](O2)[C@@H](C)C(=O)O1,2.67,> 100,> 85,> 61.3,,0.68,,> 100,,0.536,,,,,,,,,,
CCCCCCCCCCCCCCCCN1CC2CCCCC2C1 (configuration not stated),35.3,,9.22,21.1,19.7,17,25.9,> 100,,,16.9,,,2.93,8.1,5.15,4.4,11.9,> 100,
O=C1CC(c2ccc(O)cc2)C2(O1)C(=O)OC(C(O)CO)C2O (configuration not stated),> 100,> 100,> 100,> 100,> 100,,,,> 100,> 100,,,,,,,,,,
O=[N+]([O-])C1C2C=CC(C2)[C@H]1c1ccco1 (some centres not stated),> 100,,> 100,> 100,> 100,> 100,> 100,> 100,> 100,> 100,,,,,,,,,,
O=C(O)/C=C\C(=O)N1C/C(=C\c2ccccc2Cl)C(=O)/C(=C/c2ccccc2Cl)C1,18.4,9.09,10.6,3.97,3.12,4.1,13.6,,14,11.8,3.96,2.88,3.37,3.1,1.88,1.6,1.96,3.37,,3.8
CCOC(=O)c1cc(NS(=O)(=O)c2ccccc2)cc(C(=O)OCC)c1,> 100,> 100,,> 100,> 100,> 100,> 100,> 100,> 100,> 100,> 100,> 100,> 100,,> 100,> 100,> 100,> 100,> 100,> 100
Oc1cccc2ccc(N/N=C/c3cc(CN4CCCCC4)c(O)c4ncccc34)nc12,4.49,15.9,,4.9,1.85,1.21,1.6,1.67,,1.29,0.223,0.362,0.0345,,0.0459,0.0449,0.0314,0.162,0.0386,
COc1ccc(-c2nc3sc4c(c3c(=O)[nH]2)CCCCCC4)cc1,> 33.2,> 33.2,> 33.2,> 33.2,> 33.2,> 33.2,,> 33.2,16.5,> 33.2,3.72,6.67,0.874,1.48,0.908,1.18,2.55,,2.26,2.2
N#Cc1c(N2CCCC2)[nH]c(=O)c(C(c2c(Cl)cccc2Cl)c2c(O)c(C#N)c(N3CCCC3)[nH]c2=O)c1O,36.4,40.6,24,20.5,54,35.1,33.7,38.4,33,,19.3,5.34,,11.4,4.71,22.6,9.74,17.5,18.2,12.5
COc1cc(OC(C)=O)cc2c(OC(C)=O)ccc(OC(C)=O)c12,,> 100,> 100,> 100,> 100,> 100,> 100,> 100,,> 100,,,,,,,,,,
COC(C(=O)[O][Ge]([CH3])([CH3])[CH3])c1ccccc1 (configuration not stated),> 100,> 100,> 100,> 100,> 100,> 100,> 100,> 100,> 100,,> 100,> 100,,> 100,> 100,> 100,> 100,> 100,> 100,> 100
O=C1/C(=C\c2c[nH]c3ccccc23)c2ccccc2N1c1c(Cl)cccc1Cl,,3.8,,2.64,3.69,3.56,6.44,3.37,5.61,3.82,,2.14,1.55,,1.33,1.84,1.81,2.33,1.66,1.68
CCCCC(CC)CN=C(N)NC(N)=NCCCCCCN=C(N)NC(N)=NCC(CC)CCCC (configuration not stated),,5.03,6.03,4.12,,,4.85,,,3.97,,2.26,2.07,2.49,1.84,,,1.9,,

SMILES,TGI (MALME-3M melanoma) [µM],TGI (SK-MEL-28 melanoma) [µM],TGI (M14 melanoma) [µM],TGI (UACC-62 melanoma) [µM],TGI (KM12 colon) [µM],TGI (NCI-H522 lung) [µM],TGI (OVCAR-4 ovarian) [µM],TGI (NCI-H460 lung) [µM],TGI (SNB-75 CNS) [µM],TGI (HL-60(TB) leukemia) [µM],GI50 (MALME-3M melanoma) [µM],GI50 (SK-MEL-28 melanoma) [µM],GI50 (HL-60(TB) leukemia) [µM],GI50 (M14 melanoma) [µM],GI50 (UACC-62 melanoma) [µM],GI50 (KM12 colon) [µM],GI50 (NCI-H522 lung) [µM],GI50 (OVCAR-4 ovarian) [µM],GI50 (NCI-H460 lung) [µM],GI50 (SNB-75 CNS) [µM]
Cc1cc(N(CCC#N)CCC#N)ccc1N=Nc1cccc(C(=O)O)c1,> 100,> 100,> 100,> 100,> 100,> 100,> 100,,> 100,> 100,,,,,,,,,,
COc1ccc(/C=C2\CCCC3=C2N=C2SC(C)=NN2C3c2ccc(OC)c(OC)c2)cc1OC (configuration not stated),56.6,> 100,> 100,45.6,> 100,57.8,,> 100,64.2,36,15.1,8.92,3.97,5.73,4.68,8.41,10.8,,23.8,13.7
CCCNC1=C(C(=O)OCC)C(=O)CO1,> 100,> 100,> 100,> 100,,,> 100,> 100,> 100,> 100,,,,,,,,,,
CCCCCCCCCCCC(=O)OCC1OC(n2cc(F)c(=O)[nH]c2=O)C(NC(=O)OCc2ccccc2)C(OC(=O)CCCCCCCCCCC)C1O (configuration not stated),> 100,> 100,> 100,> 100,> 100,> 100,> 100,> 100,> 100,,,,,,,,,,,
COc1ccc(-c2ccc(/C=N/n3c(COc4ccc(Cl)cc4Cl)nn(CN4CCOCC4)c3=S)o2)c([N+](=O)[O-])c1,52.7,86.8,72.6,> 100,32.6,> 100,78.8,> 100,,41.1,24.6,27.7,19.1,26,87.6,16.7,45.1,21.7,25.6,
Cc1[nH]ccc2c1[nH]c1cc(=O)ccc12,> 100,> 100,> 100,> 100,> 100,,> 100,> 100,> 100,> 100,,,,,,,,,,
CC1=C(C)C(=O)c2c(cc3ccccn23)C1=O,17,34,28.1,35.4,31.3,,> 100,31.5,43.1,43.2,,,,,,,,,,
C/C(=N\NS(=O)(=O)c1ccccc1)c1ccc(Cl)c(Cl)c1,> 100,> 100,> 100,> 100,> 100,,> 100,> 100,> 100,> 100,,,,,,,,,,
CC1=C(Oc2ccccc2)C(CCC(=O)O)c2c(O)cc(Cl)c(O)c21 (configuration not stated),,> 100,> 100,,> 100,> 100,> 100,> 100,,> 100,,,,,,,,,,
Nc1ccn(CCNCCn2cnc3nc(N)[nH]c(=O)c32)c(=O)n1,> 100,> 100,,,> 100,> 100,> 100,> 100,,> 100,,,,,,,,,,
CC(=O)OCC1OC(OC2C(CSC3OC(COC(C)=O)C(OC(C)=O)C(OC(C)=O)C3OC(C)=O)OC(OC(C)=O)C(OC(C)=O)C2OC(C)=O)C(OC(C)=O)C(OC(C)=O)C1OC(C)=O (configuration not stated),> 100,> 100,> 100,> 100,> 100,> 100,> 100,> 100,> 100,,,,,,,,,,,
Cn1cc(-c2ccc3occ(-c4cccc(-c5ccncc5)c4)c3n2)cn1,> 100,> 100,> 100,> 100,> 100,12.1,> 100,> 100,13.4,,1.19,1.77,,0.457,0.478,0.358,0.594,2.7,0.381,0.404
CCOc1ccc(NC(=O)C(=O)CC(=O)C2=C(C)Nc3ccccc3S2)cc1,> 50,> 50,> 50,> 50,> 50,> 50,> 50,> 50,,,,,,,,,,,,
COc1ccc(-c2n/c(=C\c3c(O)[nH]c4ccc(OC)cc34)cc3c2=Nc2ccccc2-3)cc1,,3.32,3.59,,> 100,,,,2.99,32.5,,1.9,10.3,1.98,,3.8,,,,1.55
O=C(/C=C/c1ccccc1)c1cc(Br)ccc1O,,31.5,52.9,27.4,25.7,28.4,30.3,33.7,28.9,25.7,,,,,,,,,,
Cc1ccc(-c2cn3ccnc3c(-c3ccc(Cl)cc3)n2)cc1,,44,> 36.3,35.9,16.6,> 8.22,> 100,13.1,24.5,> 100,,0.518,0.0856,0.416,0.137,0.15,1.98,14.7,0.0916,0.465
CCCCCCCCCCC(C(=O)O)C1(C(=O)O)CCC(=O)O1 (configuration not stated),,> 100,> 100,> 100,> 100,> 100,> 100,> 100,> 100,> 100,,,,,,,,,,
O=C(CN1CCOCC1)Nc1nc(-c2ccc(Cl)cc2)cs1,65.2,74.8,> 100,53.3,48.1,,> 100,> 100,62.6,44.9,,,,,,,,,,
